Earlier results as cited in patent US20150190413A1, “COMPOSITIONS AND METHODS FOR THE TREATMENT OF BLADDER CANCER” (Endo Pharmaceuticals Solutions Inc., priority 2007, published 2015).
Read-outs that look alike come from different tables or passages of the source.

Tested on: epithelium of the bladder
Details: rabbit

C[S+](C)[O-] [DMSO, dimethyl sulfoxide]
Effect on epithelium of the bladder (five percent solutions of DMSO in water): sensitive
Effect on bladder cells (one hundred percent DMSO): fixed
Effect on epithelium of the bladder (twenty percent solutions of DMSO in water): loss of epithelial cells
